The values that follow are results of earlier work, collected in US11122828B2, “Microbial compositions comprising ellagitannin and methods of use” (MarvelBiome, Inc., priority 2018, dated 2021).

Where two headings read alike, the source gives them in different places.

Series [1] relates to inflammatory markers including inducible nitric oxide synthase, cycloxygenase-2 (COX-2), prostaglandin E synthase and prostaglandin E2. The note with it: rat colitis model.
Another series has as its system colon cancer cells. The note with it: in vitro.
For series [2] the following is noted: plasma concentration up to micromolar (μM) levels.

In the case of `O=c1oc2cc(O)ccc2c2ccc(O)cc12` [urolithin A, 3,8-dihydroxyurolithin], the “inflammatory markers in colonic mucosa” value in series [1] was “decrease inflammatory markers”. The “proliferation of colon cancer cells” value with colon cancer cells is “inhibit proliferation”. The “toxic effects in vivo” value in series [2] is on record as “without any apparent toxic effects”.
With isoflavones, the bioavailability (estimated, phenols) is recorded as 43%.
In the case of anthocyanins, for the setting “in vivo”, the bioavailability is 0.3%.
